In this experiment the target is T1, PTPN9 (Homo sapiens, UniProt P43378).
T1 construct: made in house; host or cells: Escherichia coli Rosetta (DE3)
T1 sequence (P43378 277-581): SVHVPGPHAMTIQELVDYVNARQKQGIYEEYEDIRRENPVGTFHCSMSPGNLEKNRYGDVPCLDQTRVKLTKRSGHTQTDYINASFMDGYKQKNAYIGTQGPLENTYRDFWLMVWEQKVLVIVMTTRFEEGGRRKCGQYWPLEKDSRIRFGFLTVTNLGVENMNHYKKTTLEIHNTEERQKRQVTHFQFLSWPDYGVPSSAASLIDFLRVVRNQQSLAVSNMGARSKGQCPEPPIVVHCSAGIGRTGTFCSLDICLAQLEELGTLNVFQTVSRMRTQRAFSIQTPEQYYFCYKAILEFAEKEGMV
Nature of the experiment: PTPN9 enzyme inhibition with DiFMUP substrate. The experiment is classed as biochemical. Conditions: DiFMUP 220 µM, PTPN9 0.15 nM; NA: no activity. The procedure: The purification and kinetic analyses of PTPN9 and DUSP9 (Ser277–581) were performed following methods described in the literature, with slight modifications. PAGE analysis data and enzyme kinetic constants are presented in Figure S1 and Table S1, respectively. Enzyme activity in the presence or absence of the compounds was measured using DiFMUP, a representative PTP fluorogenic substrate. First, the inhibitory effects of compounds 1–3 were evaluated using 50 µM PTPN9 and 20 µM DUSP9. There was an increase in the inhibitory activity of compound 1 for both enzymes as the number of CH2 units increased from 9 to 14 (Figure 2A,B).
Next, the IC50 values of the compounds, which induce a 50% inhibition of DiFMUP hydrolytic enzyme activity, were determined (Table 1). The IC50 values were determined from the dose–response enzyme inhibition curves of each compound. The dose–response curves for compounds 1e and 1f against PTPN9 and DUSP9, respectively, are presented in Figure 2C,D. Dose–response curves were also obtained for the other compounds (Figures S2 and S3).
The methods employed for PTP overexpression and purification have been described in a previous study. In brief, human PTPN9 and DUSP9 were cloned into a pET28a vector (Merk Millipore, Darmstadt, Germany) containing a hexahistidine (His6) tag or a maltose-binding protein (MBP) tag in its N-terminus (see Supplementary Materials). Recombinant genes were separately transformed into Escherichia coli Rosetta (DE3) (Merk Millipore, Darmstadt, Germany), and the overexpression of each gene was induced via the addition of 0.1 mM IPTG (Ducherfa Biochemie, Haarlem, RV, USA). After 16 h of incubation at 18 °C, cell pellets were obtained via centrifugation (3570× g at 4 °C for 15 min), resuspended in lysis buffer (50 mM Tris, pH: 7.5, 500 mM NaCl, 5% glycerol, 0.025% 2-mercaptoethanol, and 1 mM phenyl-methylsulfonyl fluoride (PMSF)), and lysed by ultrasonication. Subsequently, cell lysates were centrifuged at 29,820× g for 30 min at 4 °C; then, the supernatant was collected and incubated with a cobalt affinity resin (TALON® Metal Affinity Resin, Takara Korea, Seoul, Korea). After 1 h of incubation at 4 °C, the desired proteins were eluted by adding the lysis buffer supplemented with 100 mM imidazole. Samples were stored at –80 °C until use.
The enzymatic activities of purified PTPN9 and DUSP9 were measured using 6,8-difluoro-4-methylumbelliferyl phosphate (DiFMUP), the most widely used fluorogenic PTP substrate in the literature. To determine KM values, PTPN9 (0.15 nM) and DUSP9 (200 nM) were added to a reaction buffer (20 mM Bis-tris, pH: 7.0, 150 mM NaCl, 2.5 mM dithiothreitol (DTT), and 0.01% Triton X-100) containing DiFMUP (800, 400, 200, 100, 50, 25, 12.5, or 6.25 μM) in a 96-well black plate. The final reaction volume was 100 µL. The fluorescence intensity was continuously monitored for 10 min (Ex/Em = 355/460 nm) on a Victor™ X4 multilabel plate reader (Perkin Elmer, Norwalk, CT, USA). KM values were obtained using Lineweaver–Burk plots analysis.
To evaluate the enzyme inhibitory effects of GA and its analogs, 10 µl of the enzyme stock solution (1.5 nM PTPN9 and 2 µM DUSP9) in the reaction buffer was added into the mixture of DiFMUP (to a final concentration of 220 µM and 90 µM for PTPN9 and DUSP9, respectively) and each compound (to a final concentration of 50 µM and 20 µM for PTPN9 and DUSP9, respectively) was added to the reaction buffer. Enzyme activity was measured as described above. Half-inhibitory concentration (IC50) values were determined under similar conditions, except for the concentrations of the inhibitors (200, 100, 50, 25, 12.5, 6.25, or 3.125 µM for PTPN9 and 25, 12.5, 6.25, 3.125, 1.563, 0.782, or 0.391 µM for DUSP9). The dose-dependent curve was fitted to the four-parameter logistic regression equation, (y = a + (b – a)/(1 + (x/c)^d), to obtain IC50 values using the Kaleida Graph software Ver. 4.1.3. (Synergy Software Inc, PA, USA).

As usually defined, the IC50 is the concentration at which inhibition is half-maximal.

With `CCCCCCCCCCCCCOc1cccc(O)c1C(=O)O` [Compound 1e], the IC50 came out at 18.31 ± 0.17 µM.

On to `CCCCCCCCCCCCCCCOc1cccc(O)c1C(=O)O` [Compound 1f], for which the IC50 came to 10.2 ± 0.52 µM.

For the origin of these results see publication PMC8999917, “Structure–Activity Relationship of Synthetic Ginkgolic Acid Analogs for Treating Type 2 Diabetes by PTPN9 Inhibition” (International Journal of Molecular Sciences, 2022).
